Like-named read-outs stand apart in the source and are kept apart here.
Legend:
p-ERK^T202/Y204 = test: Quantitative immunofluorescence of p-ERK in MeWo cells; type: cell-based, human; settings: 6 h, different concentrations
p-AKT^S473 = test: Quantitative immunofluorescence of p-AKT in MeWo cells; type: cell-based, human; settings: 6 h, different concentrations
p-4EBP1^T37/46 = test: Quantitative immunofluorescence of p-4EBP1 in MeWo cells; type: cell-based, human; settings: 6 h, different concentrations
[1] = test system: NF1^LoF melanoma cell lines; test: Growth rate inhibition assay; type: cell-based, human; settings: for Overall drug sensitivity (area over the dose-response curve): NF1^LoF cell lines; for Normalized growth rate (DIP rate) dose response: nine NF1^LoF melanoma cell lines, 7 day-averaged, four concentrations
mTOR = mTOR (Homo sapiens, UniProt P42345); test: Biochemical kinase inhibition assay; settings: 10 μM
DNA-PK = DNA-PK (Homo sapiens, UniProt P78527); test: Biochemical kinase inhibition assay; settings: 10 μM
PI4KB = PI4KB (Homo sapiens, UniProt Q9UBF8); test: Biochemical kinase inhibition assay; settings: 10 μM
SYK = SYK (Homo sapiens, UniProt P43405); test: Biochemical kinase inhibition assay
YUHEF cells = settings: R406 3.16 μM, 72 h
MeWo cells = settings: R406 3.16 μM, 72 h
COLO792 xenografts = test: In vivo xenograft assay, COLO792; parameters: species or system mouse; settings: 50 mg/kg IP
[2] = test system: human epidermal primary melanocytes (NHEM-Ad); test: Growth rate inhibition assay, primary melanocytes; type: cell-based; settings: highest concentration (1 μM)
p-BLNK^Y96 = test: Western blot of p-BLNK in IgM-stimulated Ramos cells; type: cell-based, human; settings: 6 h
[3] = test system: p-EGFR^Y1068 in WM3918 xenograft tumors; test: Xenograft pharmacodynamic Western blot; type: in vivo, mouse; settings: single dose 100 mg/kg IP; 0.5 h after dosing
[4] = test system: p-AKT^S473 in WM3918 xenograft tumors; test: Xenograft pharmacodynamic Western blot; type: in vivo, mouse; settings: single dose 100 mg/kg IP; 0.5 h after dosing
WM3918 xenografts = test: In vivo xenograft assay, WM3918; parameters: species or system mouse; settings: 50 mg/kg IP

For COc1ccc(-c2ccc3c(N4CCOC[C@@H]4C)nc(N4CCOC[C@@H]4C)nc3n2)cc1CO [AZD8055], the “Change in p-ERK^T202/Y204 levels” value (p-ERK^T202/Y204) was “no significant effect”, the “Change in p-AKT^S473 levels” value (p-AKT^S473) was “decreased p-AKT levels in a dose-dependent manner” and the “Change in p-4EBP1^T37/46 levels” value (p-4EBP1^T37/46) was “potently reduced”.

With Cc1nc(-c2nc(-c3ccc(OC(F)(F)F)cc3)no2)nn1Cc1cccc(N2CCC(S(C)(=O)=O)CC2)c1 [IACS-010759] the “Overall drug sensitivity (area over the dose-response curve)” value [1] was “similarly sensitive to both IACS-010759 and MTX-216” and the “Growth inhibition (live cell count, normalized growth rate)” value ([1]; all tested NF1^LoF cell lines, indicated doses) was “inhibited growth in a dose-dependent fashion”.

For CS(=O)(=O)Nc1cc(-c2ccc3ncnc(Nc4ccc(F)c(Cl)c4)c3c2)cnc1Cl [MTX-211, N-(2-chloro-5-(4-((3-chloro-4-fluorophenyl)amino)quinazolin-6-yl)pyridin-3-yl)methanesulfonamide], the “Inhibition of mTOR” value (mTOR) was “inhibited”, the “Change in p-ERK^T202/Y204 levels” value (p-ERK^T202/Y204) was “no significant effect” and the “Inhibition of DNA-PK” value (DNA-PK) was “inhibited”. The “Change in p-AKT^S473 levels” value (p-AKT^S473) was “decreased p-AKT levels in a dose-dependent manner”, the “Inhibition of PI4KB” value (PI4KB) was “inhibited” and the “Change in p-4EBP1^T37/46 levels” value (p-4EBP1^T37/46) was “did not decrease p-4EBP1 levels at concentrations below 1 μM”. It also gave an IC50 (SYK; SYK IC50, 0.5 nM to 10 μM, ATP at Km,app) of roughly 6 µM and an inhibition at 10 µM (SYK; read-out: % inhibition of SYK) of 52%.

For COc1cc(Nc2ncc(F)c(Nc3ccc4c(n3)NC(=O)C(C)(C)O4)n2)cc(OC)c1OC [R406], the “p-S6 and Ki-67 levels” value (YUHEF cells) was “reduced p-S6 and Ki-67”, the “Reduction of growth rate” value ([1]; MeWo, YUHEF and WM3918, R406 at 3.16 μM, 7-day) was “approximately 2 fold” and the “p-S6 and Ki-67 levels” value (MeWo cells) was “reduced p-S6 and Ki-67”.

CS(=O)(=O)N1CCN(Cc2cc3nc(-c4cccc5[nH]ncc45)nc(N4CCOCC4)c3s2)CC1 [pictilisib] was tested, and the “Change in p-ERK^T202/Y204 levels” value (p-ERK^T202/Y204) was “no significant effect”, the “Change in p-AKT^S473 levels” value (p-AKT^S473) was “decreased p-AKT levels in a dose-dependent manner” and the “Change in p-4EBP1^T37/46 levels” value (p-4EBP1^T37/46) was “did not decrease p-4EBP1 levels at concentrations below 1 μM”.

With CC(=O)Nc1cccc(-n2c(=O)n(C3CC3)c(=O)c3c(Nc4ccc(I)cc4F)n(C)c(=O)c(C)c32)c1 [trametinib] the “Change in p-ERK^T202/Y204 levels” value (p-ERK^T202/Y204) was “reduced ERK phosphorylation in a dose-dependent manner”, the “Normalized growth rate (DIP rate) dose response” value [1] was “potent but less efficacious responses” and the “Change in p-AKT^S473 levels” value (p-AKT^S473) was “but not trametinib, decreased p-AKT levels”. The “Change in p-4EBP1^T37/46 levels” value (p-4EBP1^T37/46) was “no effect”.

CC(C)Nc1cc(-c2c[nH]c(C(=O)N[C@H](CO)c3cccc(Cl)c3)c2)c(Cl)cn1 [ulixertinib] was tested, and the “Normalized growth rate (DIP rate) dose response” value [1] was “potent but less efficacious responses”.

For “N-(2-chloro-5-(4-((3-chloro-4-fluorophenyl)amino)-3-cyanoquinolin-6-yl)pyridin-3-yl)methanesulfonamide [MTX-216]”, the “Inhibition of mTOR” value (mTOR) was “inhibited”, the “Change in p-ERK^T202/Y204 levels” value (p-ERK^T202/Y204) was “no significant effect” and the Body weight (COLO792 xenografts) was “no major loss in body weight”. The Tumor growth (COLO792 xenografts; 20 days) was “suppressed tumor growth”, the “Overall drug sensitivity (area over the dose-response curve)” value [1] was “similarly sensitive to both IACS-010759 and MTX-216” and the “Normalized growth rate (DIP rate) dose response” value [1] was “consistently cytotoxic”. For the same compound, the “Inhibition of DNA-PK” value (DNA-PK) was “inhibited”, the “Cytotoxicity (normalized growth rate)” value [2] was “no cytotoxicity” and the “Inhibition of p-BLNK^Y96 levels” value (p-BLNK^Y96) was “more efficient in inhibition of p-BLNK in comparison with MTX-211”. The “Change in p-AKT^S473 levels” value (p-AKT^S473) was “decreased p-AKT levels in a dose-dependent manner”, the “Inhibition of PI4KB” value (PI4KB) was “inhibited” and the “Change in p-4EBP1^T37/46 levels” value (p-4EBP1^T37/46) was “did not decrease p-4EBP1 levels at concentrations below 1 μM”. For the same compound, the “p-EGFR levels in excised tumors” value [3] was “significant reduction”, the “% inhibition of SYK” value (SYK; 10 μM, ATP at Km,app) was 94% and the “Potency on SYK relative to MTX-211” value (SYK; ratio of IC50) was ~ 21 fold. For the same compound, the IC50 (SYK; read-out: SYK IC50, 0.5 nM to 10 μM, ATP at Km,app) was 0.281 µM, the “p-AKT levels in excised tumors” value [4] was “significant reduction” and the Body weight (WM3918 xenografts) was “no major loss in body weight”. For the same compound, the Tumor growth (WM3918 xenografts; 11 days) was “suppressed tumor growth”.

Source: PMC9845987 (Cancer research, 2023)
